Type in all cases: biochemical
One test addresses T1, JAK3 (Homo sapiens, UniProt P52333).
T1 construct: commercial Z'-LYTE kinase assay (Life Technologies)
T1 sequence (P52333 1-1124): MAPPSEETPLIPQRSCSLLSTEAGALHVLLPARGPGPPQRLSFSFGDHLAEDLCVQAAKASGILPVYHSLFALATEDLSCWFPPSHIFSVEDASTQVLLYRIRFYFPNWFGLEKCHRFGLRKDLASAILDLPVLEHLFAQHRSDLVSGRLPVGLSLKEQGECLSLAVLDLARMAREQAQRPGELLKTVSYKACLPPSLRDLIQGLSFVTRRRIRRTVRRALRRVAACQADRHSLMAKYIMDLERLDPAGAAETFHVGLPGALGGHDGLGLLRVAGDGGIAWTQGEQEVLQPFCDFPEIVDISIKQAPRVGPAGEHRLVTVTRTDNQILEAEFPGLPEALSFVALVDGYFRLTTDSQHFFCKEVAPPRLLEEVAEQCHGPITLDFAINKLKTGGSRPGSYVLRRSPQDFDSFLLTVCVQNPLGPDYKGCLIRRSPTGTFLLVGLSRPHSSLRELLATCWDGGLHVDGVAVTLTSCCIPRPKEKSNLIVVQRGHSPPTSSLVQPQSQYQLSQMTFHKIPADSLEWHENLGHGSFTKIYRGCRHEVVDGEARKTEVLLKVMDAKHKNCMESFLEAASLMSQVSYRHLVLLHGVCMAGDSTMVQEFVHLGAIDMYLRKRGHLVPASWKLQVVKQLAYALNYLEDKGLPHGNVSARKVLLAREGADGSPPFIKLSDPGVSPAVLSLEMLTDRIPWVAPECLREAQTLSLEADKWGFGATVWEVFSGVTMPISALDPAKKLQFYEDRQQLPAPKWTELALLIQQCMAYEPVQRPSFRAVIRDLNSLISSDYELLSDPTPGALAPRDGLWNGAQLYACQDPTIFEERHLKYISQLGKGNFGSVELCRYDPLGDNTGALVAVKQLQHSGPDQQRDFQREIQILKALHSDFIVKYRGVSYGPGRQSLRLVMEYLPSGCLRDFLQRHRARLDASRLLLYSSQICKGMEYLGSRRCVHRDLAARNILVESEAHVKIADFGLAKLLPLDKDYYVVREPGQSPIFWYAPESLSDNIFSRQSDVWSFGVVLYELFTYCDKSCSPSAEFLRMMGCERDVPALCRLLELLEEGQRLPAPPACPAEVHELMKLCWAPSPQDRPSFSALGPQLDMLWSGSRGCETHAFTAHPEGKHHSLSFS
As to the kind of experiment: Z'-LYTE FRET kinase assay, 10-point titration.

The next test concerns the target JAK2 (Homo sapiens, UniProt O60674). Nature of the test: kinase inhibition assay.
The target of the next test is JAK1 (Homo sapiens, UniProt P23458). Nature of the test: kinase inhibition assay.
JAK1, sequence (P23458 whole entry): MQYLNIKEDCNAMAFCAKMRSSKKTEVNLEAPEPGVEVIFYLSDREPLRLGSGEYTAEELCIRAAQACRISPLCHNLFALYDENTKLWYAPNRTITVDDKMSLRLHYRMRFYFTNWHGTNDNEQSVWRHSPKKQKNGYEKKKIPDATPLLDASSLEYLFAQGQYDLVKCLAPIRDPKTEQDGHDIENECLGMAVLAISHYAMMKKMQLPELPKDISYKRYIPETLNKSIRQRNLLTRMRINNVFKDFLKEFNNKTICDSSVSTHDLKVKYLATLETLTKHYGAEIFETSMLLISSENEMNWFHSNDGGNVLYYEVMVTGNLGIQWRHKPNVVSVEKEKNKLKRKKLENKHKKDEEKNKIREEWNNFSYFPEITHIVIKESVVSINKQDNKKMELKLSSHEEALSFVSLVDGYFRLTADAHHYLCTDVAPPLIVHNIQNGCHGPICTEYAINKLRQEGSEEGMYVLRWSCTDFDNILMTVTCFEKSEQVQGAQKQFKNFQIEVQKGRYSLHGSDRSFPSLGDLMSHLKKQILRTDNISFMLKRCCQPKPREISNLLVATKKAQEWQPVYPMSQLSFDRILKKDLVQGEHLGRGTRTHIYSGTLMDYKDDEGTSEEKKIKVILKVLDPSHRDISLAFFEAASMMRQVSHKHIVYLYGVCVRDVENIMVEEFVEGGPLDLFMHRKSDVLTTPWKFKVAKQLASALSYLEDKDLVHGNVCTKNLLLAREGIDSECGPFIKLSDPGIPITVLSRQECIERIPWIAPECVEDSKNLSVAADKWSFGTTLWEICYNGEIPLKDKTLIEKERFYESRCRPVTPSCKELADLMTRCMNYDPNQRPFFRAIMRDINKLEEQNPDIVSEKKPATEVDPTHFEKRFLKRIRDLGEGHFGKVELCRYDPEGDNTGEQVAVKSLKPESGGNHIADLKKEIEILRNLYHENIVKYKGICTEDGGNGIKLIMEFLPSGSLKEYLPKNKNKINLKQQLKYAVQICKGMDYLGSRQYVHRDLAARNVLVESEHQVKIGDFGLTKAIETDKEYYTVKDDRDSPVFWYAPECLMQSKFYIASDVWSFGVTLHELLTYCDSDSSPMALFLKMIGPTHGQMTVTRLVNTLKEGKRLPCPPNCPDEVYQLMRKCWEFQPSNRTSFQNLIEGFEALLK

JAK2, sequence (O60674 whole entry): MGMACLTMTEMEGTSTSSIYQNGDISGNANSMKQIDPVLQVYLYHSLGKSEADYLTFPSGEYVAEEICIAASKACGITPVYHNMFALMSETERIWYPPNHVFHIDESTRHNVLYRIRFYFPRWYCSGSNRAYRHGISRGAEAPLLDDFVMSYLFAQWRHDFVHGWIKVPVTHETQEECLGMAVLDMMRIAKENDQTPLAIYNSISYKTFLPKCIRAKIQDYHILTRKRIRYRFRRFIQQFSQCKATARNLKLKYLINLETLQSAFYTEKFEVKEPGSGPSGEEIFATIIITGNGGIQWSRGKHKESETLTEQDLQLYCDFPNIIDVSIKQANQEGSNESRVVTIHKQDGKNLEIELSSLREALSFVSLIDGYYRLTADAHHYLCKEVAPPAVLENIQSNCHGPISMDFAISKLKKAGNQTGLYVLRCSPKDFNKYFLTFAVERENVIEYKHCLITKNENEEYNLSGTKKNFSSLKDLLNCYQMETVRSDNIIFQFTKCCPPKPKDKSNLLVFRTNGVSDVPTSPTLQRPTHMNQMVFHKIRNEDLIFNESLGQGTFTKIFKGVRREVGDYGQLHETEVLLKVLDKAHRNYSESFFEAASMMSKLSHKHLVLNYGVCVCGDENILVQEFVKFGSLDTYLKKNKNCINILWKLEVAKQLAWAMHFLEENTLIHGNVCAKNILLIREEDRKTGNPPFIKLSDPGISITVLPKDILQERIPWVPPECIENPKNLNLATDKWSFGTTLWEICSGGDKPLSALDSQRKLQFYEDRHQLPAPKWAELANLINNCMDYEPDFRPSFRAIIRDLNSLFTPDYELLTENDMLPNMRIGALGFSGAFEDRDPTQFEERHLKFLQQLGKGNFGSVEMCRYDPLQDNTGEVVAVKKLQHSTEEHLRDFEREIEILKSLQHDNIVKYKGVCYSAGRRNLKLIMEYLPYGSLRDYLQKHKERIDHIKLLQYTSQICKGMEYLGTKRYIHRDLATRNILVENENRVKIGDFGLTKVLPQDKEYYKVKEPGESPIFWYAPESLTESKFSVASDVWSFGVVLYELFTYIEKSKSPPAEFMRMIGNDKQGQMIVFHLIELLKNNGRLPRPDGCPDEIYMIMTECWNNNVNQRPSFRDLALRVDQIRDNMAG

As to `C=CC(=O)N1C[C@H](COc2nc(Nc3cnn(C)c3)nc3[nH]cc(Cl)c23)[C@@H](OC)C1` [compound 1, PF-06459988], half-maximal inhibition against JAK3 (IC50) required 5 nM. Turning to `C=CC(=O)Nc1cc(NC(=O)c2n[nH]c3ccccc23)ccc1F` [compound 5], on JAK3, the IC50 (usually the concentration needed to halve the response being measured) is 389 nM. The inhibition – broadly, how much of the control response was suppressed – at 10 µM against JAK2 is 62%; at JAK1 it was 18%. Take `C=CC(=O)Nc1cc(NC(=O)c2n[nH]c3c2CCC3)ccc1F` [compound 9]: at JAK3, the IC50 worked out at 1270 nM.
